Earlier results as cited in US8536188B2, “Dosing regimens for treatment of proliferative disorders comprising administration of sapacitabine” (Cyclacel Limited, priority 2007, dated 2013).
Blank lines part the entries; values can stand above or below the compound they belong to.

Columns and labels:
[1] = tested on: human tumour cells from various organs
cytidine deaminase = cytidine deaminase (Homo sapiens, UniProt P32320); conditions: compared with ara-C
CTCL = CTCL patients
[2] = phase I, patients with a variety of cancers
[3] = single dose in rodents; repeat dose up to 3 months in mice and dogs
[4] = tested on: ara-C-resistant tumour cell lines
[5] = in vivo
colon cancer = conditions: model of colon cancer
[6] = tested on: cancer cell lines, including those lacking deoxycytidine kinase; conditions: variety of cancer cell lines
NSCLC = conditions: 10 mg/m^2 intravenously over 30 minutes every three weeks

Sequence of cytidine deaminase (P32320 whole entry, species assumed): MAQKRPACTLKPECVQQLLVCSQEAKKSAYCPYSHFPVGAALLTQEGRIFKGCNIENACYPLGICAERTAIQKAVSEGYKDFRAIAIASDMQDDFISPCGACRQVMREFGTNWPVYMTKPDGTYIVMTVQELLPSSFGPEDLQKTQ

- substrate of cytidine deaminase (cytidine deaminase): weak substrate
Compound: N#C[C@H]1[C@H](O)[C@@H](CO)O[C@H]1n1ccc(N)nc1=O [CNDAC, 2′-C-Cyano-2′-deoxy-β-D-arabino-pentafuranosylcytosine]
- activity against human tumour cells [1]: broad spectrum of activity

Compound: N#CC1C(O)C(COP(=O)(O)OP(=O)(O)OP(=O)(O)O)OC1n1ccc(N)nc1=O (centres unmarked) [CNDACTP, CNDAC-triphosphate]
- inhibition of DNA polymerase (DNA polymerase): potent inhibition

Compound: Nc1ccn([C@@H]2O[C@H](CO)[C@@H](O)C2(F)F)c(=O)n1 [Gemcitabine, gemcitabine]
- response rate (CTCL): 60-70%

Compound: CCCCCCCCCCCCCCCC(=O)Nc1ccn([C@@H]2O[C@H](CO)[C@@H](O)[C@@H]2C#N)c(=O)n1 [sapacitabine, 2′-cyano-2′-deoxy-N^4-palmitoyl-1-β-D-arabinofuranosylcytosine]
- dose limiting toxicity [2]: myelosuppression
- tolerability [2]: well tolerated
- effect on tumour xenografts (human tumour xenograft; gastric, mammary, lung, colorectal and hepatic tumour xenografts): tumour regressions were observed
- antitumour activity compared with 5′-DFUR and gemcitabine (human tumour xenograft; human xenografts of poorly differentiated gastric adenocarcinoma): much more potent antitumour activity than 5′-DFUR and gemcitabine
- antitumour activity in human tumour xenograft models (human tumour xenograft; variety of tumours): active against a variety of tumours
- major toxicities [3]: hematopoietic, gastrointestinal, and testicular
- activity in vivo against resistant P388 leukemia cell lines (P388 leukemia; P388 resistant to mitomycin C, vincristine, 5-FU or cisplatin): active
- antitumour activity compared with 5′-DFUR and gemcitabine (P388 leukemia; mouse P388 leukemia model): much more potent antitumour activity than 5′-DFUR and gemcitabine
- cross-resistance to ara-C-resistant tumour cell lines [4]: partial cross-resistance
- activity against human tumour cells [1]: broad spectrum of activity
- oral bioavailability [5]: good
- anticancer activity (colon cancer): strong anticancer activity
- increasing survival, compared with gemcitabine or 5-FU (colon cancer): superior to either gemcitabine or 5-FU
- preventing the spread of colon cancer metastases to the liver, compared with gemcitabine or 5-FU (colon cancer): superior to either gemcitabine or 5-FU
- cytotoxicity of the parent drug [6]: cytotoxic

Compound: Nc1ccn([C@@H]2CO[C@H](CO)O2)c(=O)n1 [troxacitabine]
- activity in NSCLC (NSCLC): little activity
